Test results reported in patent publication EP1121937A1, “VACCINE PR[…]” (THE KITASATO INSTITUTE, priority 1998, dated 2000).
“Also recorded” adds a separate entry of the source.

Legend:
[1] = test system: cellular immunity; conditions: background art; cited from earlier work
[2] = background art; cited from earlier work
[3] = test system: influenza HA vaccine (A/Beijing/262/95 strain); format: in vivo, BALB/c mice
[4] = test system: pertussis-diphtheria-tetanus combined vaccine; parameters: species or system BALB/c mice; conditions: mouse, in vivo
[5] = test system: sheep erythrocytes; assay: Hemolytic test for active saponins (Example 6); format: cell-based; conditions: 30 minutes at room temperature, solutions 3.125 to 200 µg/ml in PBS, E and F judged at a final concentration of 200 µg/ml
Protocol: It has been known that saponins generally have the hemolytic activity. Thus, the inventive active saponins were tested for the hemolytic activity as follows. The sheep erythrocytes were washed 3 times with phosphate buffered saline (PBS), and then diluted 2.5 times with the same buffer for the subsequent experiment. Aliquots (100 µl ) of solutions of onjisaponins A, E, F, and G (200, 100, 50, 25, 6.25, 3.125 µg/ml-PBS solution) were added to V-shaped wells of a 96-well micro-plate, and 25 µl of sheep erythrocyte suspension was added to each well. The plate was allowed to stand still at room temperature for 30 minutes. Then, the samples were centrifuged at 1000 rpm for 5 minutes. An aliquot (50 µl) of the resulting supernatant was transferred to a flat-bottomed well of a plate and the absorbance thereof was measured at 490 nm in a micro-plate reader (Model 450, BioRad Co.). The hemolytic activity of test compound was evaluated based on the increase in absorbance at 490 nm, which results from the release of hemoglobin from sheep erythrocytes.

[6] = test system: influenza HA vaccine (A/Beijing/262/95 strain); parameters: species or system BALB/c mice; conditions: mouse, in vivo
[7] = test system: influenza HA vaccine (A/PR/8/34 strain); parameters: species or system BALB/c mice; conditions: mouse, in vivo
[8] = test system: pertussis-diphtheria-tetanus combined vaccine; parameters: species or system BALB/c mice; conditions: mouse, in vivo; remark: listed apart in the source

| Substance | induction of cellular immunity [1] | solubility [2] | adjuvant activity of enhancing the titer of anti-HA-IgA antibody compared with the same amount of CTB ([3]; mouse, in vivo) | anti-HA-IgA antibody titer in the nasal irrigation liquid ([3]; secondary response, […]) | anti-HA-IgG antibody titer in the nasal irrigation liquid ([3]; secondary response, […]) | titer of anti-DT-IgA antibody in the nasal irrigation liquid [4] | titer of anti-PT-IgA antibody in the nasal irrigation liquid [4] | titer of anti-TT-IgA antibody in the nasal irrigation liquid [4] | titers of anti-PT-IgA, anti-DT-IgA and anti-TT-IgA antibodies in the nasal irrigation liquid compared with the group given vaccine and CTB [4] | hemolytic activity (release of hemoglobin, absorbance at 490 nm) [5] | HI antibody titer in the serum compared with HA vaccine alone [6] | adjuvant activity (serum HI antibody titer) compared with the same amount of CTB [6] | anti-HA-IgA antibody titer in the nasal irrigation liquid [7] | anti-HA-IgG antibody titer in the nasal irrigation liquid [7] | titer of anti-DT-IgG antibody in the serum [8] | titer of anti-PT-IgG antibody in the serum [8] | titer of anti-TT-IgG antibody in the serum [8] | anti-HA-IgA and IgG antibody titers in the nasal irrigation liquid compared with the group given vaccine in combination with CTB [7] | titers of anti-PT-IgG, anti-DT-IgG and anti-TT-IgG antibodies in the serum compared with the group given vaccine and CTB [8] |
| --- | --- | --- | --- | --- | --- | --- | --- | --- | --- | --- | --- | --- | --- | --- | --- | --- | --- | --- | --- |
| QS-21 | strongly induces the cellular immunity | too low |  |  |  |  |  |  |  |  |  |  |  |  |  |  |  |  |  |
| onjisaponin F |  |  | lower | significantly increased | significantly increased | increased to highest levels | increased to highest levels | increased to highest levels | comparable | substantially no hemolytic activity; also recorded: low hemolytic activity; also recorded: hardly recognized | significantly increased | slightly weaker | increased the production | increased the production | also elevated | also elevated | also elevated |  |  |
| onjisaponin A |  |  |  |  |  | increased to highest levels | increased to highest levels | increased to highest levels | comparable | not acceptable; also recorded: hemolysis clearly occurred |  |  | increased to the highest level | increased to the highest level | increased to highest levels | increased to highest levels | increased to highest levels | comparable | comparable |
| onjisaponin E |  |  |  |  |  |  |  |  |  | substantially no hemolytic activity; also recorded: low hemolytic activity; also recorded: hardly recognized |  |  | increased only the production of anti-HA-IgA to a statistically significant level | increased only the production of anti-HA-IgA |  |  |  |  |  |
| onjisaponin G |  |  |  |  |  | also elevated |  | also elevated |  | low hemolytic activity; also recorded: moderate degree of hemolysis |  |  | increased only the production of anti-HA-IgA to a statistically significant level | increased only the production of anti-HA-IgA | increased only anti-TT-IgG antibody titer | increased only anti-TT-IgG antibody titer | increased only anti-TT-IgG antibody titer to a statistically significant level |  |  |
